Measurements reported in patent US10307413B2, “Tetrahydro- and dihydro-isoquinoline PRMT5 inhibitors and uses thereof” (Epizyme, Inc., priority 2013, dated 2019).

Tests used:
PRMT5/MEP50 = PRMT5/MEP50 (Homo sapiens (Human), UniProt O14744); experiment: PRMT5 Biochemical Assay (PRMT5/MEP50 enzyme assay on peptide substrate, 3H-SAM Flashplate); settings: PRMT5 biochemical assay
How it was run: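 Radiometric methylation of a biotin-tagged H4(1-15) peptide by human PRMT5/MEP50 from baculovirus/Sf9, with ³H-SAM incorporation read on streptavidin Flashplates. Buffer: Bicine pH 7.6, TCEP, BSG, Tween20; compound preincubated 30 min at 25 °C; stopped with 600 µM final unlabeled SAM. DMSO and SAH controls; IC50 from fitted % inhibition.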

[1] = test system: symmetric di-methyl arginine in Z-138 cells; experiment: Z-138 Methylation Assay (In Cell Western for symmetric di-methyl arginine and DNA content); assay type: cell-based; settings: Homo sapiens, In Cell Western methylation, read-out: ICW EC50
How it was run: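 In-cell western: symmetric di-methyl arginine signal ratioed to DRAQ5 DNA content after 96 h compound exposure of Z-138 cells seeded at 50,000 cells/mL.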

Z-138 cell line = experiment: Z-138 Proliferation Assay (Cell Titer Glo, 5 days); assay type: cell-based; settings: Homo sapiens, 120 h; Z-138 cells, 5 days, Cell Titer Glo; read-out: Proliferation EC50
How it was run: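 Viability via CellTiter-Glo luminescence (ATP) after 5-day incubation at 37 °C, 5% CO2. Compounds tested in triplicate, nine 3-fold steps, highest final concentration 20 μM in 0.2% DMSO; 50% inhibitory concentration by 4-parameter fit of normalized curves.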

Chain of PRMT5/MEP50 (O14744 other isoform, or with tags, fused parts or gaps): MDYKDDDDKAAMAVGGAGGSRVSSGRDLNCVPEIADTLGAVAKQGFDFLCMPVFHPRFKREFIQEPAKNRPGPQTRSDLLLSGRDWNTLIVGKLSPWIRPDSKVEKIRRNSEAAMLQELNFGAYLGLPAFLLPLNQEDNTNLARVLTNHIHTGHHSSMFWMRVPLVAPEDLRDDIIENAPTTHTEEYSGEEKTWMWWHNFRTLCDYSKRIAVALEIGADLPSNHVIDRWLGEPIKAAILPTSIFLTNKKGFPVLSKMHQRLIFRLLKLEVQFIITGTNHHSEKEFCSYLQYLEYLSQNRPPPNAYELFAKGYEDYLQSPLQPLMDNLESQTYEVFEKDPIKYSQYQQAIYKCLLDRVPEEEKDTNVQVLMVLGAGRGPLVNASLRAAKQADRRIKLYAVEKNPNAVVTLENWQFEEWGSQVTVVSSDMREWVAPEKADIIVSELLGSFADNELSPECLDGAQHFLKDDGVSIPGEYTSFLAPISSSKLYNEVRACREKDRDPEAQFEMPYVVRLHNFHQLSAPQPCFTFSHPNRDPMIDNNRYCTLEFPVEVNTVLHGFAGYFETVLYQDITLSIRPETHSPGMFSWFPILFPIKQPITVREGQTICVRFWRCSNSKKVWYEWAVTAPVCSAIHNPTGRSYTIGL
Chain of PRMT5/MEP50 (Q9BQA1 other isoform, or with tags, fused parts or gaps partner): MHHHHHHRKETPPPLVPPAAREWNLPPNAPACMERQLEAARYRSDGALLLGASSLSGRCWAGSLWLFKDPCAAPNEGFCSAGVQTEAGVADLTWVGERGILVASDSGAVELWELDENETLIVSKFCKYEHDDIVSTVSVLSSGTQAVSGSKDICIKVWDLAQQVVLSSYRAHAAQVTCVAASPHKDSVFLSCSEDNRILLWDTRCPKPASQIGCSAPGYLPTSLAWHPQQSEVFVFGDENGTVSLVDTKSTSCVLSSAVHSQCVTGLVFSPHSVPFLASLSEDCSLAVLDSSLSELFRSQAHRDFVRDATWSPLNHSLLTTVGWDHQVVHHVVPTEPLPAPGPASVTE

| SMILES | IC50 (PRMT5/MEP50) | EC50 [1] | EC50 (Z-138 cell line) |
| --- | --- | --- | --- |
| O=C(NC[C@H](O)CN1CCc2ccccc2C1)c1cc(NC2COC2)nc(C(F)(F)F)n1 [Compound 405] | < 100 nM | < 100 nM | 101 to 1000 nM |
| CCC(=O)N1CCC(Nc2cc(C(=O)NC[C@H](O)CN3CCc4ccccc4C3)ncn2)CC1 [Compound 406] | < 100 nM | < 100 nM | < 100 nM |
| CCCC(=O)N1CCC(Nc2cc(C(=O)NC[C@H](O)CN3CCc4ccccc4C3)ncn2)CC1 [Compound 407] | < 100 nM | < 100 nM | < 100 nM |
| CC(C)C(=O)N1CCC(Nc2cc(C(=O)NC[C@H](O)CN3CCc4ccccc4C3)ncn2)CC1 [Compound 408] | < 100 nM | < 100 nM | < 100 nM |
| CC(C)CC(=O)N1CCC(Nc2cc(C(=O)NC[C@H](O)CN3CCc4ccccc4C3)ncn2)CC1 [Compound 409] | < 100 nM | < 100 nM | < 100 nM |
| CC(C)(C)C(=O)N1CCC(Nc2cc(C(=O)NC[C@H](O)CN3CCc4ccccc4C3)ncn2)CC1 [Compound 410] | < 100 nM | < 100 nM | < 100 nM |
| CN1CCCCC1CNc1cc(C(=O)NC[C@H](O)CN2CCc3ccccc3C2)ccn1 (stereo partly drawn) [Compound 411] | < 100 nM | < 100 nM | 101 to 1000 nM |
| CN1CCN(c2cc(C(=O)NC[C@H](O)CN3CCc4ccccc4C3)cc(NC3CCC3)n2)CC1 [Compound 413] | < 100 nM | < 100 nM | < 100 nM |
| O=C(NC[C@H](O)CN1CCc2ccccc2C1)c1cc(NC2COC2)nc(N2CCCCC2)n1 [Compound 414] | < 100 nM | < 100 nM | < 100 nM |
| CCCC(=O)N1CC(Nc2cc(C(=O)NC[C@H](O)CN3CCc4ccccc4C3)ncn2)C1 [Compound 415] | < 100 nM | < 100 nM | < 100 nM |
| CC(C)C(=O)N1CC(Nc2cc(C(=O)NC[C@H](O)CN3CCc4ccccc4C3)ncn2)C1 [Compound 416] | < 100 nM | < 100 nM | < 100 nM |
| CC(C)CC(=O)N1CC(Nc2cc(C(=O)NC[C@H](O)CN3CCc4ccccc4C3)ncn2)C1 [Compound 417] | < 100 nM | < 100 nM | < 100 nM |
| O=C(NC[C@H](O)CN1CCc2ccccc2C1)c1cc(NC2CCN(C(=O)C3CC3)CC2)ncn1 [Compound 418] | < 100 nM | < 100 nM | < 100 nM |
| O=C(NC[C@H](O)CN1CCc2ccccc2C1)c1cc(NC2CCN(C(=O)C3CCC3)CC2)ncn1 [Compound 419] | < 100 nM | < 100 nM | < 100 nM |
| CNCCOc1cc(C(=O)NC[C@H](O)CN2CCc3ccccc3C2)ccn1 [Compound 420] | < 100 nM | < 100 nM | 1000 to 10000 nM |
| O=C(NC[C@H](O)CN1CCc2ccccc2C1)c1ccnc(OCCNCC(F)(F)F)c1 [Compound 421] | < 100 nM | < 100 nM | 1000 to 10000 nM |
| O=C(NC[C@H](O)CN1CCc2ccccc2C1)c1ncnc(NC2COC2)c1F [Compound 422] | < 100 nM | < 100 nM | 1000 to 10000 nM |
| CC(C)N1CC(Nc2cc(C(=O)NC[C@H](O)CN3CCc4ccccc4C3)ncn2)C1 [Compound 423] | < 100 nM | 101 to 1000 nM | 10000 to 50000 nM |
| CC(C)(C)C(=O)N1CC(Nc2cc(C(=O)NC[C@H](O)CN3CCc4ccccc4C3)ncn2)C1 [Compound 424] | < 100 nM | < 100 nM | 101 to 1000 nM |
| O=C(NC[C@H](O)CN1CCc2ccccc2C1)c1cc(NC2CN(C(=O)C3CC3)C2)ncn1 [Compound 425] | < 100 nM | < 100 nM | < 100 nM |
| Nc1cc(C(=O)NC[C@H](O)CN2CCc3ccccc3C2)ncn1 [Compound 429] | 101 to 1000 nM | 101 to 1000 nM | 10000 to 50000 nM |

| SMILES | IC50 (PRMT5/MEP50) | EC50 [1] | EC50 (Z-138 cell line) |
| --- | --- | --- | --- |
| CC1(C)CC(Nc2cc(C(=O)NC[C@H](O)CN3CCc4ccccc4C3)ncn2)CC(C)(C)N1 [Compound 430] | < 100 nM | 101 to 1000 nM | 1000 to 10000 nM |
| O=C(NC[C@H](O)CN1CCc2ccccc2C1)c1cc(Nc2cc[nH]n2)ncn1 [Compound 431] | < 100 nM | < 100 nM | 1000 to 10000 nM |
| Cc1cc(Nc2cc(C(=O)NC[C@H](O)CN3CCc4ccccc4C3)ncn2)n[nH]1 [Compound 432] | < 100 nM | < 100 nM | 1000 to 10000 nM |
| Cc1cc(Nc2cc(C(=O)NC[C@H](O)CN3CCc4ccccc4C3)ccn2)n[nH]1 [Compound 433] | < 100 nM | < 100 nM | 1000 to 10000 nM |
| O=C(NC[C@H](O)CN1CCc2ccccc2C1)c1cc(O)nc(NC2CCC2)c1 [Compound 434] | < 100 nM | < 100 nM | 101 to 1000 nM |
| O=C(NC[C@H](O)CN1CCc2ccccc2C1)c1cc(NC2COC2)ccn1 [Compound 435] | < 100 nM | < 100 nM | 101 to 1000 nM |
| O=C(NC[C@H](O)CN1CCc2ccccc2C1)c1cccc(NC2COC2)n1 [Compound 436] | < 100 nM | < 100 nM | 1000 to 10000 nM |
| O=C(NC[C@H](O)CN1CCc2ccccc2C1)c1ncnc(NC2COC2)c1Cl [Compound 437] | < 100 nM | < 100 nM | 1000 to 10000 nM |
| CC(C)CN1CC(Nc2cc(C(=O)NC[C@H](O)CN3CCc4ccccc4C3)ncn2)C1 [Compound 438] | < 100 nM | 101 to 1000 nM | 1000 to 10000 nM |
| O=C(NC[C@H](O)CN1CCc2ccccc2C1)c1cc(OC2CNC2)ncn1 [Compound 439] | < 100 nM | 101 to 1000 nM | 10000 to 50000 nM |
| CC(=O)N[C@H]1C[C@H](Nc2cc(C(=O)NC[C@H](O)CN3CCc4ccccc4C3)ncn2)C1 [Compound 440] | < 100 nM | < 100 nM | 101 to 1000 nM |
| CC(=O)N1CC(Nc2cc(C(=O)NC[C@H](O)CN3CCc4ccccc4C3)nc(N3CCCCC3)n2)C1 [Compound 441] | < 100 nM | < 100 nM | < 100 nM |
| CC(=O)N1CC(Nc2cc(C(=O)NC[C@H](O)CN3CCc4ccccc4C3)nc(N3CCN(C)CC3)n2)C1 [Compound 442] | < 100 nM | < 100 nM | 101 to 1000 nM |
| CC(=O)N1CC(Nc2cc(C(=O)NC[C@H](O)CN3CCc4ccccc4C3)nc(N3CCOCC3)n2)C1 [Compound 443] | < 100 nM | < 100 nM | < 100 nM |
| CC(=O)N1CC(Nc2cncc(C(=O)NC[C@H](O)CN3CCc4ccccc4C3)c2)C1 [Compound 444] | < 100 nM | < 100 nM | 101 to 1000 nM |
| C[C@H](N1CC(Nc2cc(C(=O)NC[C@H](O)CN3CCc4ccccc4C3)ncn2)C1)C(F)(F)F [Compound 445] | < 100 nM | < 100 nM | 1000 to 10000 nM |
| C[C@@H](N1CC(Nc2cc(C(=O)NC[C@H](O)CN3CCc4ccccc4C3)ncn2)C1)C(F)(F)F [Compound 446] | < 100 nM | < 100 nM | 1000 to 10000 nM |
| O=C(NC[C@H](O)CN1CCc2ccccc2C1)c1cc(NC2CNC2)nc(N2CCOCC2)n1 [Compound 447] | < 100 nM | < 100 nM | 1000 to 10000 nM |
| CN(c1cc(C(=O)NC[C@H](O)CN2CCc3ccccc3C2)ncn1)C1COC1 [Compound 448] | < 100 nM | > 1000 nM | > 20000 nM |
| CC(C)c1nc(NC2COC2)cc(C(=O)NC[C@H](O)CN2CCc3ccccc3C2)n1 [Compound 449] | < 100 nM | < 100 nM | 101 to 1000 nM |
| CC(=O)N1CC(Nc2cc(C(=O)NC[C@H](O)CN3CCc4ccccc4C3)nc(C)n2)C1 [Compound 450] | < 100 nM | < 100 nM | 101 to 1000 nM |
